Experimental data as given in patent publication US20240287614A1, “RECIPROCAL MICRORNA-MRNA PAIRINGS AS BIOMARKERS AND THERAPEUTIC TARGETS IN CANCER” (UNIVERSITY OF MARYLAND, EASTERN SHORE, priority 2023, published 2024).

What was measured:
[1] = system: prostate cancer (LNCaP and PC-3) and prostate cancer (RC77 T/E and MDA PCa 2b) cell lines; test: Caspase 3/7 activity-based apoptosis assay, prostate cancer cell lines; set-up: species or system human
Protocol: […] RC77 T/E, a primary prostate cancer cell line derived from a patient, was kindly provided by Dr. Johng Rhim at Center for Prostate Disease Research (CPDR) in Rockville, MD. LNCaP and PC-3 were served as prostate cancer cell line models, and RC77 T/E and MDA PCa 2b were served as prostate cancer cell models in the study. The cells were cultured in specific cell culture media, LNCaP was cultured in RPMI with 10% fetal bovine serum (FBS), PC-3 was cultured in DMEM with 10% FBS, MDA PCa 2b were cultured in BRFF-HPC1 with 20% FBS and RC77 T/E was cultured in Keratinocyte SFM with Human Recombinant Epidermal Growth Factor (EGF 1-53) and Bovine Pituitary Extract (BPE). Cells were maintained at 37° C. in a 5% CO2 incubator. LNCaP, PC-3 and MDA PCa 2b cells were seeded at density 3×10^4 cells/well in 6-well plates. RC77 T/E cells were seeded at density 5×10^4 cells/well in 6-well plates. The cells were allowed to grow for 24 h and then were either transfected with miR-34a-5p mimic, miR-99b-5p mimic, or miR-96-5p antagomir using DharmaFECT4 transfection reagent (Dharmacon), according to the manufacturer's protocol. After 24 h, the cells were replaced with fresh media then incubated for 24 h. miR-34a-5p mimic, miR-99b-5p mimic, miR-96-5p antagomir, and nonsense miRNA mimic and antagomir controls were purchased from Ambion. Nonsense/scrambled miRNA mimic and antagomir were used as negative controls.
For the measurement of apoptosis initiation by transfection of miRNA mimic or antagomir in prostate cancer cells, the transfected cells 5000 cells/well were seeded onto 96-well cell culture plates (Corning) and then incubated overnight. The miRNA mimic/antagomir transfected cells were then treated with vehicle or […] of Docetaxel. 24 h after the vehicle or drug treatment, the apoptosis assays were performed using Apo-ONE Caspase-3/7 Assay Kit (Promega Corporation) according to the protocol described by the manufacturer. 100 μL of homogeneous Caspase-3/7 reagent was added to the sample plate and incubated at room temperature for 1 h. Fluorescence was detected for measuring the apoptosis state (Caspase 3/7 activity) using Biotek Synergy HT Microplate Reader (BioTek) at wavelengths of 499 nm and 521 nm for excitation and emission, respectively.

mTOR and pmTOR [2] = test: Immunofluorescence of mTOR and pmTOR in prostate cancer cell lines transfected with NS or miR-99b-5p mimic; format: cell-based, human; details: vs NS
From the text: (§1) The human cell lines used in the study included: 22Rv1, LNCaP, PC-3, RC77 T/E and MDA PCa 2b (prostate cancer cell lines), MDA MB 231 and MCF-7 (breast cancer cell lines), HT-29 and SW620 (colon cancer cell lines), A549 and H1299 (lung cancer cell lines). RWPE-1, HMEC, FHC, and BEAS-2B were used as normal control cell lines for prostate, breast, colon, and lung, respectively. Note that 22Rv1 is a castration-resistant […] prostate cancer cell line, while LNCaP and PC-3 were derived from lymph node and bone metastasis of […] prostate cancer patients, respectively. RC77 T/E was derived from a primary prostate cancer patient, and MDA PCa 2b was derived from bone metastasis of an prostate cancer patient. The cell lines described were used as in vitro cell models to evaluate the functional roles of miR-99b-5p/MTOR pairing in the […] prostate cancer, African American prostate cancer and solid tumors in general. The cells were grown in specific cell culture media described as follows: 22Rv1, LNCaP, MCF-7 and H1299 were cultured in RPMI-1640 with 10% fetal bovine serum (FBS), PC-3, A549 and FHC were cultured in DMEM with 10% FBS, RC77 T/E was cultured in Keratinocyte SFM with human recombinant epidermal growth factor (EGF) and bovine pituitary extract (BPE), MDA PCa 2b were cultured in BRFF-HPC1 with 20% FBS, HT-29 was cultured in McCory's with 10% FBS, SW620 and MDA MB 231 were cultured in L-15 with 10% FBS, HMEC was cultured in mammary epithelial cell basal medium with supplements, and BEAS-2B was cultured in BEBM base medium with BEBM supplement kit. Cells were maintained at 37° C. in a 5% CO2 incubator.
(§2) The 22Rv1, LNCaP, PC-3, MDA PCa 2b, MCF7, H1299, A549, HT-29, SW620, MDA MB-231, HMEC and BEAS-2B cells were seeded at a density of 3×10^5 cells/well in 6-well plates. RC77 T/E cells were seeded at a density of 5×10^5 cells/well in 6-well plates. The cells were grown for 24 h and then transfected with nonsense/scrambled RNA (NS) and miR-99b-5p mimic (Ambion) using DharmaFECT4 transfection reagent (Dharmacon). After 24 h, fresh media were applied to replace the transfection reagent-containing media, then the cells were incubated for an additional 24 h.
(§3) In this process, 4×10^4 cells were seeded on cover slip and allowed to adhere for 24 h in 5% CO2 incubator at 37° C. All the cells were subjected to immunofluorescence assays 48 h following transfection. Briefly, cells were washed with 1×PBS, fixed in 4% paraformaldehyde, and permeabilized with 0.1% Triton X-100. Cells were then blocked for 1 h with 2% BSA in 1×PBS. […] All labeled and/or prepared cells mounted on glass slides and were visualized by fluorescence microscopy (Olympus). […]

mTOR and pmTOR [3] = test: Immunofluorescence of mTOR and pmTOR in colon, breast and lung cancer cell lines; format: cell-based, human
From the text: as §1, §2, §3

[4] = 22Rv1, LNCaP, PC-3, RC77 T/E, MDA PCa 2b, 48 h following transfection
[5] = all European American and African American prostate cancer cell lines
[6] = HT-29, SW620, MDA MB 231, MCF-7, A549, H1299, miR-99b-5p transfected vs NS transfected
[7] = six colon, breast, lung cancer cell lines, mimic vs NS

Substance: miR-99b-5p mimic: miRNA mimic of miR-99b-5p (SEQ ID NO: 2, CACCCGUAGAACCGACCUUGCG), purchased from Ambion (listed as RNA, chemistry not given here; listed as Homo sapiens)
- docetaxel-induced cytotoxicity (caspase 3/7 activity), combination with docetaxel ([1]; LNCaP cells, 11 mM of Docetaxel, 24 h): further enhanced
- apoptosis (caspase 3/7 activity), transfection in the presence of docetaxel ([1]; RC77 T/E and MDA PCa 2b, 11 mM of Docetaxel, 24 h): significantly induced apoptosis
- cell apoptosis (caspase 3/7 activity) compared with NS transfected cells ([1]; absence of docetaxel (vehicle control), LNCaP, PC-3, RC77 T/E, MDA PCa 2b): overall generalized or significant increase
- pmTOR signals (immunofluorescence) (mTOR and pmTOR [2]; [4]): generalized reduction
- total mTOR signals (immunofluorescence) (mTOR and pmTOR [2]; [4]): generalized reduction
- cytoplasmic pmTOR signals (immunofluorescence quantification) (mTOR and pmTOR [2]; [5]): increased
- nuclear pmTOR signals (immunofluorescence quantification) (mTOR and pmTOR [2]; [5]): reduced significantly
- mTOR levels (immunofluorescence) (mTOR and pmTOR [3]; [6]): generalized reduction
- pmTOR levels (immunofluorescence) (mTOR and pmTOR [3]; [6]): generalized reduction
- cytoplasmic mTOR/nuclear mTOR ratios (immunofluorescence) (mTOR and pmTOR [3]; [7]): elevated
- cytoplasmic pmTOR/nuclear pmTOR ratios (immunofluorescence) (mTOR and pmTOR [3]; [7]): elevated
